From patent US9844599B2, “Nitric oxide releasing produgs of therapeutic agents” (priority 2013, dated 2017)
“Also recorded” adds a separate entry of the source. Like-named read-outs stand apart in the source and are kept apart here.

Legend:
[1] = Stability of prodrugs / release of parent drug in Simulated Gastric Fluid (SGF); assay type: in vitro ADME
Procedure: SGF was prepared according to the procedure described in Test Solution—USP. Thus, 0.2 g of sodium chloride and 0.32 g of purified pepsin (Sigma, derived from porcine stomach mucosa with an activity of 800 to 2500 units per mg of protein) were dissolved in 0.7 mL of hydrochloric acid and sufficient water to make 100 mL. This test solution has a pH of about 1.2 and was utilized for in-vitro studies.
The solution of the test compound in acetonitrile (10 μL of […] solution) was dissolved in 990 μL of biological fluid (SGF/SIF/Human Plasma). The resulting reaction mixtures were incubated at 37° C. At specified time intervals, aliquots (60 μL) were withdrawn and added to acetonitrile (200 μL) and mixed well by vortexing for 2 minutes. The mixture was centrifuged at 13000 rpm for 15 min at 4° C., and the supernatant analyzed by HPLC. The amounts (area percentages) of the remaining intact prodrug (if any) and the released metabolite(s) were estimated by HPLC.
This was performed by using HPLC instrument (Waters alliance), pump 2695, and PDA detector 2996 with the following chromatographic parameters: Wavelength −210 nm; Column-Waters X-Terra RP-18, 150×3.9 mm, 5 μm; Injection volume, 25 μL; Run time, 13 min. Mode of operation was linear gradient with mobile phase A: Acetonitrile and B: 0.1% TFA in water (filtered and degassed). Flow rate was 1.0 mL/min at 25° C.

[2] = Stability of prodrugs at RT and at 50° C. (capped vials); assay type: physicochemical
[3] = Acute gastric ulcerogenesis activity study; conditions: rats, acute oral; aspirin 100 mg/kg, I-D1-R1 298.85 mg/kg, naproxen 100 mg/kg, I-D2-R1 138.67 mg/kg
Procedure: The animals were sacrificed after 5 h of drug administration. The stomachs of the treated animals were separated, perfused with 2% formalin (10 mL), and a large curvature was excised. The severity of the mucosal damage was assessed on the basis of the size of the observed ulcer lesions in the images captured using a stereomicroscope attached to a digital camera (Stemi 2000, Zeiss, Germany). The Image Pro Plus software (version 5.1) was used to quantify the hemorrhagic/ulcer lesions in pixels and to convert them into mm^2. The total area of lesions was calculated for each treatment group and the measure of gastric ulcers (Mean±SEM) (mm^2) was estimated (FIGS. 5 and 6).

[4] = test system: serum thromboxane B2 (TXB2) formation; assay: Inhibition of serum thromboxane B2 (TXB2) formation; assay type: in vivo, Sprague-Dawley (SD) rats; conditions: Rattus norvegicus, po, 168 h; SD rats, 30 mg/kg aspirin or equimolar 44.82 mg/kg, o.d., 7 days
Procedure: Aspirin is used as an antiplatelet agent for the treatment of cardiovascular complications. […] It is therefore possible to achieve complete suppression of platelet. TXA2 (and also TXB2) formation via chronic administration of aspirin at a dose of 30 mg/daily (Patrignani, P., et al. J. Clin. Invest. 1982, 69, 1366-1372). The antiplatelet activity of aspirin (30 mg/kg) and its prodrug I-D1-R1 (at a dose equimolar to 30 mg/kg dose of aspirin) was evaluated in Sprague-Dawley (SD) rats through estimation of serum TXB2 levels (Esser, R. et al., Br. J. Pharmacol. 2006, 144, 538-550) and the experimental results are presented in FIG. 7.
In vivo TXB2 inhibition potential of aspirin and NO-aspirin prodrugs was assessed in Sprague-Dawley (SD) rats; the serum TXB2 levels were estimated according to the reported procedure (R. Esser, R., et al., Br. J. Pharmacol. 2006, 144, 538-550). Thus, vehicle, aspirin (30 mg/kg) or aspirin prodrug I-D1-R1 (44.82 mg/kg which is equivalent to 30 mg/kg dose of aspirin) were administered orally to the overnight fasted SD rats. […] The serum TXB2 concentrations were determined by enzyme immunoassay (EIA) using commercially available TXB2 estimation kit (Cayman Chemicals, USA), according to the method described in kit information booklet.

[5] = simulated gi fluid, 0 h, 1 µM, pH 1.2
[6] = simulated gi fluid, 5 min, 1 µM, pH 1.2
[7] = simulated gi fluid, 10 min, 1 µM, pH 1.2
[8] = simulated gi fluid, 0.5 h, 1 µM, pH 1.2
[9] = simulated gi fluid, 1 h, 1 µM, pH 1.2
[10] = simulated gi fluid, 2 h, 1 µM, pH 1.2
[11] = simulated gi fluid, 3 h, 1 µM, pH 1.2
[12] = simulated gi fluid, 1 µM, pH 1.2

Prodrug Remaining (%) [1, 5] | Prodrug Remaining (%) [1, 6] | Prodrug Remaining (%) [1, 7] | Prodrug Remaining (%) [1, 8] | Prodrug Remaining (%) [1, 9] | Prodrug Remaining (%) [1, 10] | Prodrug Remaining (%) [1, 11] | Release of parent drug on incubation in SGF (in words) [1] | t1/2 of prodrug in SGF [1, 12] | Structure (SMILES) | further results
100.00% | 100.00% | 100.00% | 100.00% | 100.00% | 100.00% | 100.00% |  |  | COc1ccc2cc([C@H](C)C(=O)OCCCO[N+](=O)[O-])ccc2c1 [II-D2-X3, reference compound] | 
100.00% | 99.68% | 99.79% | 99.75% | 99.67% | 99.39% | 99.19% | no release of parent drug naproxen |  | COc1ccc2cc([C@H](C)C(=O)OCCO[N+](=O)[O-])ccc2c1 [II-D2-X2, reference compound] | Fate of prodrug on incubation in SGF (in words) [1]: remained intact
100% | 94.33% | 90.43% | 62.15% | 51.01% | 39.08% | 6.77% | released naproxen | ~1 h | CCC(OC(=O)[C@@H](C)c1ccc2cc(OC)ccc2c1)O[N+](=O)[O-] (stereo partly drawn) [I-D2-R2, (2S)-1-(nitrooxy)propyl 2-(6-methoxynaphthalen-2-yl)propanoate] | 
100.00% | 100.00% | 100.00% | 100.00% | 100.00% | 100.00% | 100.00% |  |  | COc1ccc2cc([C@H](C)C(=O)OCCCCO[N+](=O)[O-])ccc2c1 [II-D2-X4, reference compound] | 

More lines, now with the values behind:

Structure (SMILES) | Prodrug Remaining (%) [1, 5] | Prodrug Remaining (%) [1, 6] | Prodrug Remaining (%) [1, 7] | Prodrug Remaining (%) [1, 8] | Prodrug Remaining (%) [1, 9] | Prodrug Remaining (%) [1, 10] | Prodrug Remaining (%) [1, 11] | Release of parent drug on incubation in SGF (in words) [1] | t1/2 of prodrug in SGF [1, 12] | further results
CC(=O)Oc1ccccc1C(=O)Oc1cccc(CO[N+](=O)[O-])c1 [II-D1-X1, reference compound] |  |  |  |  |  |  |  |  |  | Fate of prodrug on incubation in SGF (in words) [1]: remained intact; % of Prodrug remaining (μM) [1, 5]: 100.00%; % of Prodrug remaining (μM) [1, 6]: 100.00%; % of Prodrug remaining (μM) [1, 7]: 100.00%; % of Prodrug remaining (μM) [1, 8]: 100.00%; % of Prodrug remaining (μM) [1, 9]: 100.00%; % of Prodrug remaining (μM) [1, 10]: 100.00%
COc1ccc2cc([C@H](C)C(=O)OC(C)O[N+](=O)[O-])ccc2c1 (stereo partly drawn) [I-D2-R1, (2S)-1-(nitrooxy)ethyl 2-(6-methoxynaphthalen-2-yl)propanoate] | 100.00% | 84.68% | 74.58% | 32.79% | 0.00% | 0.00% | 0.00% | released quantitative amounts of the parent drug, naproxen |  | Nap (Naproxen) formed on storage ([2]; 50° C., 0 h): NIL; Prodrug (area %) on storage ([2]; 50° C., 0 h): 99.12%; Nap (Naproxen) formed on storage ([2]; 50° C., 25 d): 0.33%; Prodrug (area %) on storage ([2]; 50° C., 25 d): 99.00%; Nap (Naproxen) formed on storage ([2]; RT, 0 h): NIL; Prodrug (area %) on storage ([2]; RT, 0 h): 99.12%; Nap (Naproxen) formed on storage ([2]; RT, 25 d): 0.2%; Prodrug (area %) on storage ([2]; RT, 25 d): 98.87%; Stability on storage (in words) ([2]; both at RT and at 50° C., up to 25 days): remained stable; melting point: 69 to 71 °C; Development of gastric ulcers or lesions [3]: none of the animals
CCCCC(OC(=O)[C@@H](C)c1ccc2cc(OC)ccc2c1)O[N+](=O)[O-] (stereo partly drawn) [I-D2-R4, (2S)-1-(nitrooxy)pentyl 2-(6-methoxynaphthalen-2-yl)propanoate] | 100% | 97.74% | 96.18% | 90.53% | 88.87% | 79.97% | 71.04% | released appreciable amounts of the parent drug naproxen | >3 h | 
CCCC(OC(=O)[C@@H](C)c1ccc2cc(OC)ccc2c1)O[N+](=O)[O-] (stereo partly drawn) [I-D2-R3, (2S)-1-(nitrooxy)butyl 2-(6-methoxynaphthalen-2-yl)propanoate] | 100% | 96.35% | 93.61% | 82.73% | 75.48% | 57.55% | 39.00% | released naproxen | ~2.5 h | 
CC(OC(=O)CCCc1ccc(N(CCCl)CCCl)cc1)O[N+](=O)[O-] (stereo not shown) [I-D3-R1, 1-(nitrooxy)ethyl 4-(4-(bis(2-chloroethyl)amino)phenyl)butanoate] |  |  |  |  |  |  |  |  |  | Prodrug Remaining (%) ([1]; SGF, 0 min): 92.12%; Prodrug Remaining (%) ([1]; SGF, 5 min): 20.49%; Prodrug Remaining (%) ([1]; SGF, 10 min): 13.84%; Prodrug Remaining (%) ([1]; SGF, 15 min): 8.59%; Prodrug Remaining (%) ([1]; SGF, 30 min): 0.00%; Prodrug Remaining (%) ([1]; SGF, 60 min): 0.00%; Prodrug Remaining (%) ([1]; SGF, 120 min): 0.00%; Prodrug Remaining (%) ([1]; SGF, 180 min): 0.00%; Release of parent drug on incubation in SGF (in words) ([1]; SGF, whole time course): quantitative release of the parent drug, chlorambucil; also recorded: released its parent drug chlorambucil quantitatively; half-life at 1 µM ([1]; simulated gi fluid, pH 1.2, SGF, read-out: t1/2 of prodrug in SGF): < 5 min
CC(=O)Oc1ccccc1C(=O)O [Aspirin, aspirin, reference compound] |  |  |  |  |  |  |  |  |  | AUC of aspirin (released / remaining) in SGF ([1]; 1 µM, pH 1.2): 12348 µM·h; inhibition at 30 mg/kg [4]: 76%
